Test system: 379773-124-R-J2-PDC spheroid viability
Assay: Anticancer human tumor 379773-124-R-J2-PDC patient-derived endometrial carcinoma cell line growth inhibition [POLQ]
Conditions: spheroids with HUVEC and MSC; for IC50: curve of first compound; for viability, T/C: stronger effect = lower value
In short: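 PDC + HUVEC + MSC complex spheroids; POLQ inhibitors ± partner drugs; top conc. at/near clinical Cmax, else 10 microM (SN-38 1 microM), half-log dilutions; 37 degrees C, 5% CO2.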

[1] = second compound 0.0316 µM, first compound 0.0316 µM
[2] = second compound 0.0316 µM, first compound 0.1 µM
[3] = second compound 0.1 µM, first compound 0.0316 µM
[4] = second compound 0.1 µM, first compound 0.1 µM
[5] = second compound 0.316 µM, first compound 0.0316 µM
[6] = second compound 0.316 µM, first compound 0.1 µM
[7] = second compound 1 µM, first compound 0.0316 µM
[8] = second compound 1 µM, first compound 0.1 µM
[9] = second compound 3.16 µM, first compound 0.0316 µM
[10] = second compound 3.16 µM, first compound 0.1 µM
[11] = second compound 10 µM, first compound 0.0316 µM
[12] = second compound 10 µM, first compound 0.1 µM
[13] = second compound 0.0316 µM, first compound 0.316 µM
[14] = second compound 0.0316 µM, first compound 1 µM
[15] = second compound 0.0316 µM, first compound 3.16 µM
[16] = second compound 0.0316 µM, first compound 10 µM
[17] = second compound 0.1 µM, first compound 0.316 µM
[18] = second compound 0.1 µM, first compound 1 µM
[19] = second compound 0.1 µM, first compound 3.16 µM
[20] = second compound 0.1 µM, first compound 10 µM
[21] = second compound 0.316 µM, first compound 0.316 µM
[22] = second compound 0.316 µM, first compound 1 µM
[23] = second compound 0.316 µM, first compound 3.16 µM
[24] = second compound 0.316 µM, first compound 10 µM
[25] = second compound 1 µM, first compound 0.316 µM
[26] = second compound 1 µM, first compound 1 µM
[27] = second compound 1 µM, first compound 3.16 µM
[28] = second compound 1 µM, first compound 10 µM
[29] = second compound 3.16 µM, first compound 0.316 µM
[30] = second compound 3.16 µM, first compound 1 µM
[31] = second compound 3.16 µM, first compound 3.16 µM
[32] = second compound 3.16 µM, first compound 10 µM
[33] = second compound 10 µM, first compound 0.316 µM
[34] = second compound 10 µM, first compound 1 µM
[35] = second compound 10 µM, first compound 3.16 µM
[36] = second compound 10 µM, first compound 10 µM
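Also: spheroids exposed to drugs for seven days before readout.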
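For viability, T/C in this document: percent viability relative to DMSO vehicle control taken as 100%.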

## CC[C@@]1(O)C(=O)OCc2c1cc1n(c2=O)Cc2cc3c(CN(C)C)c(O)ccc3nc2-1 + Cc1cccc(N(C)C(=O)C2C(O)CCN2c2nc(C)cc(C(F)(F)F)c2C#N)c1
Second compound 0.0316 µM
  IC50: 24.3 nM
Second compound 0.1 µM
  IC50: 21.1 nM
Second compound 0.316 µM
  IC50: 22.2 nM
Second compound 1 µM
  IC50: 20.2 nM
Second compound 3.16 µM
  IC50: 19.5 nM
Second compound 10 µM
  IC50: 16.3 nM
Second compound 0.0316 µM, first compound 0.000316 µM
  viability, T/C: 90.3%
Second compound 0.0316 µM, first compound 0.001 µM
  viability, T/C: 89.1%
Second compound 0.0316 µM, first compound 0.00316 µM
  viability, T/C: 77.8%
Second compound 0.0316 µM, first compound 0.01 µM
  viability, T/C: 85.4%
[1]
  viability, T/C: 39.6%
[2]
  viability, T/C: 14.2%
Second compound 0.1 µM, first compound 0.000316 µM
  viability, T/C: 89.2%
Second compound 0.1 µM, first compound 0.001 µM
  viability, T/C: 88.6%
Second compound 0.1 µM, first compound 0.00316 µM
  viability, T/C: 84.1%
Second compound 0.1 µM, first compound 0.01 µM
  viability, T/C: 81.9%
[3]
  viability, T/C: 32.9%
[4]
  viability, T/C: 14%
Second compound 0.316 µM, first compound 0.000316 µM
  viability, T/C: 87.3%
Second compound 0.316 µM, first compound 0.001 µM
  viability, T/C: 77.5%
Second compound 0.316 µM, first compound 0.00316 µM
  viability, T/C: 85.4%
Second compound 0.316 µM, first compound 0.01 µM
  viability, T/C: 85.7%
[5]
  viability, T/C: 34.8%
[6]
  viability, T/C: 13.8%
Second compound 1 µM, first compound 0.000316 µM
  viability, T/C: 86.6%
Second compound 1 µM, first compound 0.001 µM
  viability, T/C: 83.3%
Second compound 1 µM, first compound 0.00316 µM
  viability, T/C: 95.1%
Second compound 1 µM, first compound 0.01 µM
  viability, T/C: 86.8%
[7]
  viability, T/C: 26.7%
[8]
  viability, T/C: 16%
Second compound 3.16 µM, first compound 0.000316 µM
  viability, T/C: 84.9%
Second compound 3.16 µM, first compound 0.001 µM
  viability, T/C: 87.7%
Second compound 3.16 µM, first compound 0.00316 µM
  viability, T/C: 93.3%
Second compound 3.16 µM, first compound 0.01 µM
  viability, T/C: 87%
[9]
  viability, T/C: 23%
[10]
  viability, T/C: 17.2%
Second compound 10 µM, first compound 0.000316 µM
  viability, T/C: 97.7%
Second compound 10 µM, first compound 0.001 µM
  viability, T/C: 95%
Second compound 10 µM, first compound 0.00316 µM
  viability, T/C: 86.4%
Second compound 10 µM, first compound 0.01 µM
  viability, T/C: 70.6%
[11]
  viability, T/C: 22.1%
[12]
  viability, T/C: 17.8%

## Nc1ccn(C2OC(CO)C(O)C2(F)F)c(=O)n1 (stereo unspecified) + Cc1cccc(N(C)C(=O)C2C(O)CCN2c2nc(C)cc(C(F)(F)F)c2C#N)c1
Second compound 0.0316 µM
  IC50: < 31.6 nM
Second compound 0.1 µM
  IC50: < 31.6 nM
Second compound 0.316 µM
  IC50: < 31.6 nM
Second compound 1 µM
  IC50: < 31.6 nM
Second compound 3.16 µM
  IC50: < 31.6 nM
Second compound 10 µM
  IC50: < 31.6 nM
[1]
  viability, T/C: 25.1%
[2]
  viability, T/C: 9.7%
[13]
  viability, T/C: 7.84%
[14]
  viability, T/C: 9.16%
[15]
  viability, T/C: 9.02%
[16]
  viability, T/C: 7.36%
[3]
  viability, T/C: 21%
[4]
  viability, T/C: 11.4%
[17]
  viability, T/C: 10.4%
[18]
  viability, T/C: 8.24%
[19]
  viability, T/C: 9.14%
[20]
  viability, T/C: 8.33%
[5]
  viability, T/C: 25.4%
[6]
  viability, T/C: 11.3%
[21]
  viability, T/C: 7.36%
[22]
  viability, T/C: 9.63%
[23]
  viability, T/C: 9.1%
[24]
  viability, T/C: 9.51%
[7]
  viability, T/C: 17.7%
[8]
  viability, T/C: 8.64%
[25]
  viability, T/C: 7.94%
[26]
  viability, T/C: 9.54%
[27]
  viability, T/C: 10.9%
[28]
  viability, T/C: 9.2%
[9]
  viability, T/C: 21.1%
[10]
  viability, T/C: 10.5%
[29]
  viability, T/C: 8.82%
[30]
  viability, T/C: 9.94%
[31]
  viability, T/C: 10.1%
[32]
  viability, T/C: 9.91%
[11]
  viability, T/C: 15.7%
[12]
  viability, T/C: 10.8%
[33]
  viability, T/C: 12.1%
[34]
  viability, T/C: 11.4%
[35]
  viability, T/C: 13.6%
[36]
  viability, T/C: 11.1%

## O=c1[nH]cc(F)c(=O)[nH]1 + Cc1cccc(N(C)C(=O)C2C(O)CCN2c2nc(C)cc(C(F)(F)F)c2C#N)c1
Second compound 0.0316 µM
  IC50: > 10000 nM
Second compound 0.1 µM
  IC50: > 10000 nM
Second compound 0.316 µM
  IC50: > 10000 nM
Second compound 1 µM
  IC50: > 10000 nM
Second compound 3.16 µM
  IC50: > 10000 nM
Second compound 10 µM
  IC50: > 10000 nM
[1]
  viability, T/C: 95%
[2]
  viability, T/C: 88.5%
[13]
  viability, T/C: 88.2%
[14]
  viability, T/C: 77.2%
[15]
  viability, T/C: 76.6%
[16]
  viability, T/C: 61.5%
[3]
  viability, T/C: 95.5%
[4]
  viability, T/C: 90.7%
[17]
  viability, T/C: 93.4%
[18]
  viability, T/C: 85.8%
[19]
  viability, T/C: 82%
[20]
  viability, T/C: 58.7%
[5]
  viability, T/C: 91.8%
[6]
  viability, T/C: 88.7%
[21]
  viability, T/C: 94%
[22]
  viability, T/C: 74.5%
[23]
  viability, T/C: 82%
[24]
  viability, T/C: 68.8%
[7]
  viability, T/C: 92.2%
[8]
  viability, T/C: 90.4%
[25]
  viability, T/C: 82.2%
[26]
  viability, T/C: 86.3%
[27]
  viability, T/C: 74.2%
[28]
  viability, T/C: 67.7%
[9]
  viability, T/C: 84.9%
[10]
  viability, T/C: 97.8%
[29]
  viability, T/C: 79.8%
[30]
  viability, T/C: 76.5%
[31]
  viability, T/C: 77.3%
[32]
  viability, T/C: 52.9%
[11]
  viability, T/C: 78.7%
[12]
  viability, T/C: 96.6%
[33]
  viability, T/C: 96.4%
[34]
  viability, T/C: 83%
[35]
  viability, T/C: 75%
[36]
  viability, T/C: 56.2%
